Laboratory results taken from patent US11311543B2, “Compositions and methods for inhibiting PTPN22” (YALE UNIVERSITY, priority 2016, dated 2022).

Legend:
[1] = tested on: B cells isolated from humanized mice; assay: Calcium flux after BCR triggering in B cells isolated from humanized mice (flow cytometry); format: in vivo, humanized NSG mouse; details: anti-IgM F(ab′)2 25 μg/mL
Experimental: FIG. 40A depicts the phosphorylation of SHIP1, Lyn and ERK1/2 in total cell lysates of Ramos B cells treated or not with the PTPN22 inhibitor LTV-1 (5 μg/mL) for the indicated times. The cells were subjected to immunoblot analysis of P-LYN P-SHIP1, P-ERK1/2, and β-ACTIN. FIG. 40B depicts flow cytometry analysis of calcium flux of Ramos B cells treated or not with the PTPN22 inhibitor LTV-1 (5 μg/mL) for the indicated times followed by stimulation with anti-IgM F(ab′)2 at the indicated concentrations. FIG. 40C depicts flow cytometry analysis of calcium flux of splenocyte cells treated or not with LTV-1 (0.75 mg) twice daily for 7 days and stimulated with anti-IgM F(ab′)2 (25 μg/mL). FIG. 40D depicts flow cytometry analysis of calcium flux of splenocyte expressing PTPN22 shRNA and stimulated with anti-IgM F(ab′)2 (25 μg/mL).
However, downstream ERK phosphorylation was not affected by PTPN22 inhibition (FIG. 40A). Since PTPN22 inhibition enhanced TCR signaling in Jurkat cell line, it was investigated if PTPN22 blockade may also increase BCR signaling and calcium flux induced by BCR triggering was measured in RAMOS cells in the presence or not of LTV-1. Calcium flux was increased by PTPN22 inhibition, especially at lower concentration of BCR triggering agent (FIG. 40B). […]

[2] = tested on: new emigrant/transitional B cells; assay: Frequencies of autoreactive new emigrant/transitional B cells (central B cell tolerance) in humanized NSG mice engrafted with PTPN22 C/T or T/T HSCs; format: in vivo, NSG mice engrafted with human HSCs
Experimental: FIG. 7, comprising FIG. 7A through FIG. 7C depicts results of experiments showing inhibition of PTPN22 enzymatic activity resets central B cell tolerance. FIG. 7A depicts a schematic diagram depicting the PTPN22 inhibitor treatment strategy. NSG mice generated with CD34+ HSCs carrying PTPN22 T allele(s) were injected twice daily with 0.75 mg or 0.15 mg of PTPN22 inhibitor for one week. FIG. 7B depicts the frequencies of polyreactive new emigrant B cells from NSG mice carrying PTPN22 T allele(s) and treated with the PTPN22 inhibitor were determined and compared to those of non-treated NSG mice. […] For each B-cell fraction, the frequency of reactive (filled area) and non-reactive (open area) clones is summarized in pie charts with the total number of clones tested indicated in the center. In summarized reactivity panels on the right, each dot represents an untreated mouse and full and half-filled diamonds mice treated with either 0.75 or 0.15 mg of LTV-1 PTPN22 inhibitor, respectively. Averages are shown with a bar. FIG. 7C depicts the frequencies of HEp-2 reactive new emigrant B cells from NSG mice carrying PTPN22 T allele(s) and treated with the PTPN22 inhibitor were determined and compared to those of non-treated NSG mice. […] For each B-cell fraction, the frequency of reactive (filled area) and non-reactive (open area) clones is summarized in pie charts with the total number of clones tested indicated in the center. In summarized reactivity panels on the right, each dot represents an untreated mouse and full and half-filled diamonds mice treated with either 0.75 or 0.15 mg of LTV-1 PTPN22 inhibitor, respectively. Averages are shown with a bar.
Human CD34^+ cells were purified from fetal liver samples by density gradient centrifugation followed by positive immunomagnetic selection with anti-human CD34 microbeads (Miltenyi). Newborn NSG mice (within first 3 days of life) were sublethally irradiated (X-ray irradiation with X-RAD 320 irradiator at 180 cGy) and 100,000-150,000 CD34^+ cells in 20 μL of PBS were injected into the liver with a 22-gauge needle (Hamilton Company). Mice were used for experiments 10-12 weeks after transplantation. NSG mice treated with the PTPN22 inhibitor were injected twice daily i.p. with 0.75 mg or 0.15 mg of PTPN22 inhibitor for a week.
The pTRIP-Ubi-GFP lentiviral vector has been used for overexpression of PTPN22 variants and short hairpin RNA (shRNA) delivery. Vector constructions have been described previously (Cantaert et al., 2015, Immunity 43:884-95; Ruer-Laventie et al., 2015, Immun Inflamm Dis 3:265-79). The following sequence are used for human PTPN22 targeting: shRNA1 5′-[…]-3′ (SEQ ID NO: 1), shRNA2 5′-CTGTTGCCAACATCCTCTA-3′(SEQ ID NO: 3), or shRNA3 5′-AAGAATCCACCTGACTTCC-3′(SEQ ID NO: 2). Lentiviral particles were produced by transient transfection of 293T cells, as previously described (Schickel et al., 2012, EMBO Mol Med 4:1261-75). Viruses were then used to transduce CD34^+ HSCs in the presence of protamine sulfate (Sigma).
B cells were enriched from splenocytes using magnetic separation with CD19 microbeads (Miltenyi Biotech) and stained with CD19-Pacific Blue, CD10-PE-Cy7, CD21-APC and IgM-biotin (all from Biolegend) prior to purification. Single CD19^+CD10^+CD21^lowGFP^− or GFP^+ new emigrant B cells were sorted on a FACSAria (BD Biosciences) into 96-well PCR plates and immediately frozen on dry ice. […]

[3] = GFP+ shRNA+ PTPN22 C/T or T/T new emigrant/transitional B cells vs GFP- counterparts

Row | Molecule | calcium flux in B cells isolated from treated humanized mice ([1]; LTV-1 0.75 mg twice daily for 7 days, vs non-treated) | frequencies of HEp-2 reactive new emigrant/transitional B cells ([2]; PTPN22 C/T or T/T engrafted NSG mice, 0.75 mg LTV-1 i.p. twice daily for a week) | frequencies of polyreactive new emigrant/transitional B cells ([2]; PTPN22 C/T or T/T engrafted NSG mice, 0.75 mg LTV-1 i.p. twice daily for a week, vs non-treated) | anti-nuclear clone frequencies ([2]; PTPN22 C/T or T/T engrafted NSG mice, LTV-1 twice daily for a week) | calcium flux after BCR triggering in GFP+ shRNA-expressing B cells ([1]; GFP+ vs GFP- B cells from humanized NSG mouse) | production of HEp-2 reactive clones [2, 3] | production of polyreactive clones [2, 3]
1 | Cc1ccccc1N1C(=O)/C(=C/c2ccc(OCc3cccc(C(=O)O)c3)cc2)C(=O)NC1=S [LTV-1] | enhanced | normalized | significantly reduced | remained very low |  |  | 
2 | shRNA #1: shRNA targeting human PTPN22, 5′-CTAGTGCTCTTGGTGTATATT-3′, delivered by GFP-tagged lentivirus |  |  |  |  | increased calcium flux | significantly reduced | significantly reduced
